Results reported in paper PMC4354951 (European journal of medicinal chemistry, 2008).

Legend:
[1] = pH 1.4, 37 °C ref 30; cited from earlier work
perfused rat pancreas = perfused rat pancreas ref 31, cited from earlier work
[2] = physiological pH ref 30; cited from earlier work
P2Y2R = conditions: cited from earlier work
ecto-5′-nucleotidases = conditions: muscle strip preparations, 60 min incubation ref 21; cited from earlier work
P2Y1R = conditions: cited from earlier work
P2X1R = conditions: cited from earlier work
P2X2/3Rs = conditions: cited from earlier work
[3] = tested on: 1321N1 astrocytoma and C6 glioma cells; conditions: via NPPs and CD73 ref 39; cited from earlier work
[4] = Chemical hydrolysis under gastric juice-like conditions; type: physicochemical; conditions: pH 1.4, 37 °C
[5] = Stability in human blood serum, Method A; type: in vitro ADME; conditions: half-life vs ATP
human NTPDase1 = target: T1, human NTPDase1 (Homo sapiens, UniProt P49961); assay: Hydrolysis by NTPDase1; type: biochemical; conditions: 100 μM substrate; relative to ATP hydrolysis (100%)
T1 sequence (P49961 1-510): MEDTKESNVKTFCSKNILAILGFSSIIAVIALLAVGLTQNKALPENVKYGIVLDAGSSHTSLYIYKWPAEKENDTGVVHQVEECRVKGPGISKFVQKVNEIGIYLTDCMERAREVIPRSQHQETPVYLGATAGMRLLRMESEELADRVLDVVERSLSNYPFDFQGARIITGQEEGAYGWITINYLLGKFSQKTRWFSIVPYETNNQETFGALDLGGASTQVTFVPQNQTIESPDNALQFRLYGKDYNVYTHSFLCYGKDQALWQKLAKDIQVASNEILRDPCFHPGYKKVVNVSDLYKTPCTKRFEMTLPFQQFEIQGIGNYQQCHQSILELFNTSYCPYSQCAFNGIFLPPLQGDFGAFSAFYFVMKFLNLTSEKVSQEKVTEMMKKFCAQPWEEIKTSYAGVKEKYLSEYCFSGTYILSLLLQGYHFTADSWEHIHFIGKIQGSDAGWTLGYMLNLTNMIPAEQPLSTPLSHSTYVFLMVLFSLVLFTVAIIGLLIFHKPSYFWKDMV

human NTPDase3 = target: T2, human NTPDase3 (Homo sapiens, UniProt O75355); assay: Hydrolysis by NTPDase3; type: biochemical; conditions: 100 μM substrate; relative to ATP hydrolysis (100%)
T2 sequence (O75355 1-529): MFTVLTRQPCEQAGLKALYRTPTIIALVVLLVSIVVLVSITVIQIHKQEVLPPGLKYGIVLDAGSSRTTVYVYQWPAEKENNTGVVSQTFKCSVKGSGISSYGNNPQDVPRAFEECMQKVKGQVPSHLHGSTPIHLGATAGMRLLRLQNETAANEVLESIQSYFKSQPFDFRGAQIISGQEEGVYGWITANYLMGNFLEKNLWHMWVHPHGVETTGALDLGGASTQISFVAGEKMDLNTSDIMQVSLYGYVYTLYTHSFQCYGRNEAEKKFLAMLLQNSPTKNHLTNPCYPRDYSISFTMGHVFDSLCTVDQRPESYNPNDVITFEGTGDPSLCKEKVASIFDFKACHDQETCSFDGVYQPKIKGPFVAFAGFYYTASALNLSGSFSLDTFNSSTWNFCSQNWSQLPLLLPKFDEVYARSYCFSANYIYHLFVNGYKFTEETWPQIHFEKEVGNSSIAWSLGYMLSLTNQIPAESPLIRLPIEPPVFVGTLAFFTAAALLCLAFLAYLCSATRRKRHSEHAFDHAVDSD

human NTPDase8 = target: T3, human NTPDase8 (Homo sapiens, UniProt Q5MY95); assay: Hydrolysis by NTPDase8; type: biochemical; conditions: 100 μM substrate; relative to ATP hydrolysis (100%)
T3 sequence (Q5MY95 1-495): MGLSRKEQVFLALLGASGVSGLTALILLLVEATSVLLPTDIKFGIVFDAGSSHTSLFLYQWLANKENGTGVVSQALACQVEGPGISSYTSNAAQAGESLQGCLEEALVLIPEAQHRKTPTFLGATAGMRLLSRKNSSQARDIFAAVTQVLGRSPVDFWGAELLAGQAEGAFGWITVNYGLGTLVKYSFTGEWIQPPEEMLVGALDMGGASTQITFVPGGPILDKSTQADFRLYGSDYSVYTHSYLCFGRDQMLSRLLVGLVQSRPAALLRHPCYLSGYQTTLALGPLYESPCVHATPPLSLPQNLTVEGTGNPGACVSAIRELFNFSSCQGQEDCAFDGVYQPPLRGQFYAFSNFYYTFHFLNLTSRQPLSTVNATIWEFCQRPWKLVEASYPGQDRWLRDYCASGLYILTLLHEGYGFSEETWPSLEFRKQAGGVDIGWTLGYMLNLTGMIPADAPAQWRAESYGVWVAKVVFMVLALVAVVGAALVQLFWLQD

turkey P2Y1 receptor = turkey P2Y1 receptor (Meleagris gallopavo, UniProt P49652); type: cell-based; conditions: 1321N1 cell transfectants
Chain of turkey P2Y1 receptor (P49652 whole entry): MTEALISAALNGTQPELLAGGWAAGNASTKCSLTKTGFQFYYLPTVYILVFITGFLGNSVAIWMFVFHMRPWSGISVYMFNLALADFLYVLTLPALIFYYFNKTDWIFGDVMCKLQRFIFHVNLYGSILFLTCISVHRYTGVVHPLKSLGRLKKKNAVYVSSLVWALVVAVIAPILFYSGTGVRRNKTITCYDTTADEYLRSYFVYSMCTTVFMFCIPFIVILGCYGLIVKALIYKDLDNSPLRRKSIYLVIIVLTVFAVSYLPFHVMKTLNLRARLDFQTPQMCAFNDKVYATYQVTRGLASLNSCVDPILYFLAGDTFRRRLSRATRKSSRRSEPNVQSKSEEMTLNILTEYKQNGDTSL

human P2Y2 receptor = human P2Y2 receptor (Homo sapiens, UniProt P41231); assay: Increase in [Ca2+]i in 1321N1 astrocytoma cells expressing P2Y2 receptor; type: cell-based
Chain of human P2Y2 receptor (P41231 whole entry): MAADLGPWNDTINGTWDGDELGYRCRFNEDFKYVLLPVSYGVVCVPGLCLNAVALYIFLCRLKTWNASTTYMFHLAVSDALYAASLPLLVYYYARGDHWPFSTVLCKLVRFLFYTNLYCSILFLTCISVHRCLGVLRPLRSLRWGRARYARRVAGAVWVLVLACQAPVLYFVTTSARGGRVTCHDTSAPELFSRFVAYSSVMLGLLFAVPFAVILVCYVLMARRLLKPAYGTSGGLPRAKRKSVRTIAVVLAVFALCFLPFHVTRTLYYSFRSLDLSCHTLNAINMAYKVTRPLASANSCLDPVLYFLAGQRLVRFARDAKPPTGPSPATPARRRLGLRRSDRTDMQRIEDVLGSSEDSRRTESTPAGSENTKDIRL

human P2Y4 receptor = human P2Y4 receptor (Homo sapiens, UniProt P51582); assay: Increase in [Ca2+]i in 1321N1 astrocytoma cells expressing P2Y4 receptor; type: cell-based
Chain of human P2Y4 receptor (P51582 whole entry): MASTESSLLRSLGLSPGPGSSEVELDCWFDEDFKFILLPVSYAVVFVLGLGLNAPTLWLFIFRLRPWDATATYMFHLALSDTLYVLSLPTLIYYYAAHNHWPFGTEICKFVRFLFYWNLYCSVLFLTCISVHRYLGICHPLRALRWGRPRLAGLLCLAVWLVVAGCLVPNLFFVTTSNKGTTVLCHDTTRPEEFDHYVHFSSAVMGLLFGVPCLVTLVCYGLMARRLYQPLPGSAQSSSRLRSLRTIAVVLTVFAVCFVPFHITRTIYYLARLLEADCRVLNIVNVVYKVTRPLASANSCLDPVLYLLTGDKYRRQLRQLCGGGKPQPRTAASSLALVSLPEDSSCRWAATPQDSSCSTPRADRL

rat P2Y6 receptor = rat P2Y6 receptor (Rattus norvegicus, UniProt Q63371); assay: Increase in [Ca2+]i in 1321N1 astrocytoma cells expressing P2Y6 receptor; type: cell-based
Chain of rat P2Y6 receptor (Q63371 whole entry): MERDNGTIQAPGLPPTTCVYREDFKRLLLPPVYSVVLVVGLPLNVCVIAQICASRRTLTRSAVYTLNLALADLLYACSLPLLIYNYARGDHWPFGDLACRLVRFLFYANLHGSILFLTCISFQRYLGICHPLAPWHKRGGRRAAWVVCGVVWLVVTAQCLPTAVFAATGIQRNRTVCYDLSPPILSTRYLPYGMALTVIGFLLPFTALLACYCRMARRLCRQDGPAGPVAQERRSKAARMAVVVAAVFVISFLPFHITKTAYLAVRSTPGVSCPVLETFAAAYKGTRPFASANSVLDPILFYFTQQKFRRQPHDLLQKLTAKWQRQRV

[6] = pKa and degree of ionization of phosphate/phosphonate; type: physicochemical; conditions: physiological conditions, pH 7.4

For 2-MeS–ATP-α-B [compound 1], the “t1/2 of acidic hydrolysis” value [1] is given as 5.9 h, the “enhancement of insulin secretion as compared to basal secretion” value (perfused rat pancreas) is given as “ninefold” and the EC50 (perfused rat pancreas; read-out: EC50 of insulin secretion) is given as 28 nM. For the same compound, the “t1/2 at physiological pH” value [2] was 1395 h and the “activity at P2Y2R” value (P2Y2R) was “very weak agonists”.

For `Nc1ncnc2c1ncn2[C@@H]1O[C@H](COP(=O)(O)OP(=O)(O)CP(=O)(O)O)[C@@H](O)[C@H]1O` [β,γ-CH2–ATP], the “degradation by ecto-5′-nucleotidases” value (ecto-5′-nucleotidases) is listed as “no degradation”, the “activation of P2Y1Rs” value (P2Y1R) is listed as “did not activate” and the “antagonism at P2Y1R” value (P2Y1R; responses elicited by 2-MeS–ADP ref 48) is listed as “weak competitive antagonist”. For the same compound, the “activity at P2X1R” value (P2X1R) was “P2X1R agonist”, the “activity at P2X2/3Rs” value (P2X2/3Rs) was “weak agonist” and the “metabolism in cells” value [3] was “rapidly metabolized to adenosine”.

In the case of `CSc1nc(N)c2ncn([C@@H]3O[C@H](COP(=O)(O)OP(=O)(O)CP(=O)(O)O)[C@@H](O)[C@H]3O)c2n1` [compound 2, 2-MeS–adenosine-5′-O-triphosphate-β,γ-CH2], the “improvement of chemical stability as compared to 1” value [4] is reported as about 11 fold, the “enhancement of the metabolic stability of ATP” value [5] is reported as at least 3.5 fold and the “Relative activity of NTPDase1” value (human NTPDase1) is reported as 7–8%. The “Relative activity of NTPDase3” value (human NTPDase3) was 7–8%, the “Relative activity of NTPDase8” value (human NTPDase8) was 7–8% and the “agonist activity at P2Y1R” value (turkey P2Y1 receptor) was “potent P2Y1R agonists”. The EC50 (human P2Y2 receptor) was over 100 µM, the “agonist activity at P2Y2R” value (human P2Y2 receptor; 1321N1 cell transfectants) was “inactivity” and the EC50 (human P2Y4 receptor) was over 100 µM. The EC50 (rat P2Y6 receptor) was over 100 µM, the fraction ionized [6] was 9% and the “degradation by ecto-5′-nucleotidases” value (ecto-5′-nucleotidases) was “no degradation”.
